Test results taken from paper PMC7983974 (Basic & Clinical Pharmacology & Toxicology, 2020).
“And” between values parts separate entries of the source, which are not always exact repeats. Equal entries are not always repeated. Where two headings read alike, the source gives them in different places.

Legend:
[1] = molecular target: T1, UGT-mediated glucuronidation of molidustat (M1 formation) (Homo sapiens, UniProt P22309); test: Inhibition of M1 formation from molidustat in pooled human liver microsomes; type: in vitro ADME; settings: human, pooled human liver microsomes, probe molidustat 5 µmol/L (formation of M1), IC50, pooled HLMs 0.3 mg/mL, N=1, Table 1
T1 sequence (P22309 26-533): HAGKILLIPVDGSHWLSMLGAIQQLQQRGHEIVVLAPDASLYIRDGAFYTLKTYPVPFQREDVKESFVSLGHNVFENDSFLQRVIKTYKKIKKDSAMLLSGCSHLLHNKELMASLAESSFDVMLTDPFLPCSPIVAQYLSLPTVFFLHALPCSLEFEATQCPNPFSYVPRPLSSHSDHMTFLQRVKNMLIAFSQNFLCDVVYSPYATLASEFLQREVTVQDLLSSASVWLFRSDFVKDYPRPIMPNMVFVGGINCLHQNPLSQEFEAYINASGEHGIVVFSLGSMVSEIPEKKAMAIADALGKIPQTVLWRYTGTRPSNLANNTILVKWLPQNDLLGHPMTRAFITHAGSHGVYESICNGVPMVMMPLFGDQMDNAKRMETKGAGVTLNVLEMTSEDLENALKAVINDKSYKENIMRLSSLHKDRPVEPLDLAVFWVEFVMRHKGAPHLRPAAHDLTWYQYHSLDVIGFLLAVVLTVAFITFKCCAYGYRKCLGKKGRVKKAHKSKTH

[2] = system: pooled human liver microsomes; test: Isoform-specific UGT inhibitors on M1 formation in human liver microsomes; type: in vitro ADME; settings: inhibitor 10 µmol L^−1; liver, intestine and kidney microsomes
[3] = type: in vivo, human; settings: for t max: n = 13, median and range
[4] = system: molidustat glucuronidation (clearance); test: In vitro-in vivo scaling: predicted increase in molidustat AUC; design: species or system human; settings: fm 0.9; unbound hepatic inlet concentration, ka 0.1 min^−1
[5] = cited from earlier work
[6] = (Molidustat + atazanavir)/molidustat, ANOVA

Compound | IC50 at 30 min [1] [µM] | also measured
COc1ccc2[nH]c([S+]([O-])Cc3ncc(C)c(OC)c3C)nc2c1 (centres unmarked) [Omeprazole] | 17.1 | –
CCc1nn(CCCN2CCN(c3cccc(Cl)c3)CC2)c(=O)n1CCOc1ccccc1 [Nefazodone] | 11.4 | –
Cc1cccc(Nc2ccccc2C(=O)O)c1C [Mefenamic acid] | 16 | inhibitory activity on M1 formation [2]: none or very little activity
CC(=O)O[C@H]1C(=O)[C@@]2(C)[C@H]([C@H](OC(=O)c3ccccc3)[C@]3(O)C[C@H](OC(=O)[C@H](O)[C@@H](NC(=O)c4ccccc4)c4ccccc4)C(C)=C1C3(C)C)[C@]1(OC(C)=O)CO[C@@H]1C[C@@H]2O [Paclitaxel] | 10.8 | –
CC1=C(CC(=O)O)c2cc(F)ccc2/C1=C\c1ccc([S+](C)[O-])cc1 (centres unmarked) [Sulindac] | 37.5 | –
COc1ccc(CCN2CCC(Nc3nc4ccccc4n3Cc3ccc(F)cc3)CC2)cc1 [Astemizole] | 23.5 | –
CC(=O)N1CCN(c2ccc(OCC3COC(Cn4ccnc4)(c4ccc(Cl)cc4Cl)O3)cc2)CC1 (centres unmarked) [Ketoconazole] | 6.1 | –
O=c1c(O)c(-c2ccc(O)c(O)c2)oc2cc(O)cc(O)c12 [Quercetin] | 5.5 | –
CC(C)(C)NC(=O)[C@@H]1CN(Cc2cccnc2)CCN1C[C@@H](O)C[C@@H](Cc1ccccc1)C(=O)N[C@H]1c2ccccc2C[C@H]1O [Indinavir] | 3 | –
O=C(O)C[C@H](O)C[C@H](O)/C=C/c1c(C2CC2)nc2ccccc2c1-c1ccc(F)cc1 [Pitavastatin] | 14.8 | –
O=C(O)c1cccnc1Nc1cccc(C(F)(F)F)c1 [Niflumic acid] | 14.6 | –
Clc1ccccc1C(c1ccccc1)(c1ccccc1)n1ccnc1 [Clotrimazole] | 10.2 | –
Molidustat glucuronide [M1] | – | t max ([3]; 25 mg molidustat + atazanavir 400 mg qd for 5 days): 2.0 (1.5‐4.0) H; t max ([3]; 25 mg molidustat alone): 2.0 (1.0‐3.0) H; Point estimate parameter ratio, AUC [3, 6]: 0.85 and 0.8472; Point estimate parameter ratio, AUC(0‐tlast) [3, 6]: 0.8470; Point estimate parameter ratio, C max [3, 6]: 0.80 and 0.8002; reduction in systemic exposure to the glucuronide M1 with atazanavir ([3]; human, in vivo): −15%; exposure to M1 in the presence of atazanavir ([3]; relative to molidustat alone): approximately 85%
CCN(CC)CCNC(=O)c1c(C)[nH]c(/C=C2\C(=O)Nc3ccc(F)cc32)c1C [Sunitinib] | 18.7 | –
Cc1cn(-c2cc(NC(=O)c3ccc(C)c(Nc4nccc(-c5cccnc5)n4)c3)cc(C(F)(F)F)c2)cn1 [Nilotinib] | 0.17 | AUCRinlet, ka 0.1 min^−1 (estimated increase in molidustat AUC) [4]: more than fivefold
Cc1c(O)cccc1C(=O)N[C@@H](CSc1ccccc1)[C@H](O)CN1C[C@H]2CCCC[C@H]2C[C@H]1C(=O)NC(C)(C)C [Nelfinavir] | 1.5 | –
C=CC[C@@H]1/C=C(\C)C[C@H](C)C[C@H](OC)[C@H]2O[C@@](O)(C(=O)C(=O)N3CCCC[C@H]3C(=O)O[C@H](/C(C)=C/[C@@H]3CC[C@@H](O)[C@H](OC)C3)[C@H](C)[C@@H](O)CC1=O)[C@H](C)C[C@@H]2OC [Tacrolimus] | 0.7 | –
O=C1Nc2ccc(Cl)cc2[C@@](C#CC2CC2)(C(F)(F)F)O1 [Efavirenz] | 8 | –
CCCc1nc2c(C)cc(-c3nc4ccccc4n3C)cc2n1Cc1ccc(-c2ccccc2C(=O)O)cc1 [Telmisartan] | 2.8 | –
Cc1ccc(-c2cc(C(F)(F)F)nn2-c2ccc(S(N)(=O)=O)cc2)cc1 [Celecoxib] | 10.6 | –

Compound | IC50 at 30 min [1] [µM] | also measured
COc1ccnc(C[S+]([O-])c2nc3ccc(OC(F)F)cc3[nH]2)c1OC (centres unmarked) [Pantoprazole] | 19.7 | –
O=C1C(CC[S+]([O-])c2ccccc2)C(=O)N(c2ccccc2)N1c1ccccc1 (centres unmarked) [Sulfinpyrazone] | 31.4 | –
COc1ccccc1OCCNCC(O)COc1cccc2[nH]c3ccccc3c12 (centres unmarked) [Carvedilol] | 2.9 | –
CC(C)=CCC/C(C)=C/COc1c2ccoc2cc2oc(=O)ccc12 [Bergamottin] | 14.8 | –
COCC(=O)O[C@]1(CCN(C)CCCc2nc3ccccc3[nH]2)CCc2cc(F)ccc2[C@@H]1C(C)C [Mibefradil] | 20.2 | –
CC#C[C@]1(O)CC[C@H]2[C@@H]3CCC4=CC(=O)CCC4=C3[C@@H](c3ccc(N(C)C)cc3)C[C@@]21C [Mifepristone] | 1.4 | –
C#Cc1cccc(Nc2ncnc3cc(OCCOC)c(OCCOC)cc23)c1 [Erlotinib] | 0.13 | AUCRinlet, ka 0.1 min^−1 (estimated increase in molidustat AUC) [4]: more than fivefold
C[C@]12CC[C@@H](O)C[C@@H]1CC[C@@H]1[C@@H]2CC[C@]2(C)C(=O)CC[C@@H]12 [Androsterone] | 44 | –
COc1cccc2c1C(=O)c1c(O)c3c(c(O)c1C2=O)C[C@@](O)(C(=O)CO)C[C@@H]3O[C@H]1C[C@H](N)[C@H](O)[C@H](C)O1 [Doxorubicin] | 40.4 | –
Cc1cccc(C)c1OCC(=O)N[C@@H](Cc1ccccc1)[C@@H](O)C[C@H](Cc1ccccc1)NC(=O)[C@H](C(C)C)N1CCCNC1=O [Lopinavir] | 1.3 | –
CN(CCOc1ccc(CC2SC(=O)NC2=O)cc1)c1ccccn1 (centres unmarked) [Rosiglitazone] | 10.7 | –
CC[C@H](C)C(=O)O[C@H]1CCC=C2C=C[C@H](C)[C@H](CC[C@@H]3C[C@@H](O)CC(=O)O3)[C@H]21 [Mevastatin] | 13.2 | –
O=c1c(-c2ccc(O)cc2)coc2cc(O)ccc12 [Daidzein] | 6.8 | –
Cc1c(OCC(F)(F)F)ccnc1C[S+]([O-])c1nc2ccccc2[nH]1 (centres unmarked) [Lansoprazole] | 36.8 | –
Cc1nc(-c2ccc(OCC(C)C)c(C#N)c2)sc1C(=O)O [Febuxostat] | 7.2 | –
COc1cc2ncnc(Nc3ccc(F)c(Cl)c3)c2cc1OCCCN1CCOCC1 [Gefitinib] | 1.8 | –
O=C1C[C@@H](c2ccc(O)cc2)Oc2cc(O)cc(O)c21 [Naringenin] | 11.6 | –
COc1cc(/C=C/C(=O)CC(=O)/C=C/c2ccc(O)c(OC)c2)ccc1O [Curcumin] | 2.2 | –
O=C(O)Cc1ccccc1Nc1c(Cl)cccc1Cl [Diclofenac] | 38.2 | –
CCCc1nn(C)c2c(=O)[nH]c(-c3cc(S(=O)(=O)N4CCN(C)CC4)ccc3OCC)nc12 [Sildenafil] | 46.2 | –

Compound | IC50 at 30 min [1] [µM] | also measured
Clc1ccc(COC(Cn2ccnc2)c2ccc(Cl)cc2Cl)c(Cl)c1 (centres unmarked) [Miconazole] | 19.3 | –
COc1cc(N)c(Cl)cc1C(=O)NC1CCN(CCCOc2ccc(F)cc2)CC1OC (centres unmarked) [Cisapride] | 4.1 | –
O=c1c(-c2ccc(O)cc2)coc2cc(O)cc(O)c12 [Genistein] | 2.3 | –
CC[C@H](C)C(=O)O[C@H]1C[C@@H](C)C=C2C=C[C@H](C)[C@H](CC[C@@H]3C[C@@H](O)CC(=O)O3)[C@H]21 [Lovastatin] | 10.5 | –
CS(=O)(=O)CCNCc1ccc(-c2ccc3ncnc(Nc4ccc(OCc5cccc(F)c5)c(Cl)c4)c3c2)o1 [Lapatinib] | 2.5 | –
CO[C@H]1C[C@@H]2CC[C@@H](C)[C@@](O)(O2)C(=O)C(=O)N2CCCC[C@H]2C(=O)O[C@H]([C@H](C)C[C@@H]2CC[C@@H](OCCO)[C@H](OC)C2)CC(=O)[C@H](C)/C=C(\C)[C@@H](O)[C@@H](OC)C(=O)[C@H](C)C[C@H](C)/C=C/C=C/C=C/1C [Everolimus] | 4.5 | –
C=CC1=C(C)/C(=C/c2[nH]c(Cc3[nH]c(/C=C4\NC(=O)C(C)=C4C=C)c(C)c3CCC(=O)O)c(CCC(=O)O)c2C)NC1=O [Bilirubin] | 1.5 | –
CNC(=O)c1cc(Oc2ccc(NC(=O)Nc3ccc(Cl)c(C(F)(F)F)c3)cc2)ccn1 [Sorafenib] | 0.32 | –
CCC(C)n1ncn(-c2ccc(N3CCN(c4ccc(OCC5COC(Cn6cncn6)(c6ccc(Cl)cc6Cl)O5)cc4)CC3)cc2)c1=O (centres unmarked) [Itraconazole] | 1.2 | –
COC(=O)N[C@H](C(=O)N[C@@H](Cc1ccccc1)[C@@H](O)CN(Cc1ccc(-c2ccccn2)cc1)NC(=O)[C@@H](NC(=O)OC)C(C)(C)C)C(C)(C)C [Atazanavir] | – | AUCRinlet, ka 0.1 min^−1 (estimated increase in molidustat AUC) [4]: more than fivefold
CC(C)(O)c1ccccc1CC[C@@H](SCC1(CC(=O)O)CC1)c1cccc(/C=C/c2ccc3ccc(Cl)cc3n2)c1 [Montelukast] | 0.49 | –
Cc1c(F)cccc1NC(=O)Nc1ccc(Cl)c(S(=O)(=O)[C@H]2CCCNC2)c1O [danirixin] | – | drug excreted as glucuronides [5]: approximately 90%; recovered as directly conjugated parent compound [5]: 80%
Cc1nc(Nc2ncc(C(=O)Nc3c(C)cccc3Cl)s2)cc(N2CCN(CCO)CC2)n1 [Dasatinib] | 1.4 | –
COc1ccc(Cl)cc1C(=O)NCCc1ccc(S(=O)(=O)NC(=O)NC2CCCCC2)cc1 [Glibenclamide] | 6.3 | –
O=C(O)c1cc(-c2ccc(F)cc2F)ccc1O [Diflunisal] | 75.6 | –
Cc1ncc2n1-c1ccc(Cl)cc1C(c1ccccc1F)=NC2 [Midazolam] | 11.1 | –
Oc1cc(O)c2c(c1)O[C@H](c1cc(O)c(O)c(O)c1)[C@H](O)C2 [(‐)‐Epigallocatechin] | 5.1 | –
COc1ccc(/C=C/C(=O)Nc2ccccc2C(=O)O)cc1OC [Tranilast] | 1.7 | –
